The source made the active and inactive calls. The rule behind the calls is not given here.

We go through 13 molecules from ChEMBL document CHEMBL5385949, “Transient Receptor Potential Melastatin 7 (TRPM7) Ion Channel Inhibitors: Preliminary SAR and Conformational Studies of Xenicane Diterpenoids from the Hawaiian Soft Coral Sarcothelia edmondsoni” (J Nat Prod, 2024).

The target of data set [1] is T1, Transient receptor potential cation channel subfamily M member 7 (Mus musculus, UniProt Q923J1). It counts as cell-based, HEK293.
T1 sequence (Q923J1 whole entry): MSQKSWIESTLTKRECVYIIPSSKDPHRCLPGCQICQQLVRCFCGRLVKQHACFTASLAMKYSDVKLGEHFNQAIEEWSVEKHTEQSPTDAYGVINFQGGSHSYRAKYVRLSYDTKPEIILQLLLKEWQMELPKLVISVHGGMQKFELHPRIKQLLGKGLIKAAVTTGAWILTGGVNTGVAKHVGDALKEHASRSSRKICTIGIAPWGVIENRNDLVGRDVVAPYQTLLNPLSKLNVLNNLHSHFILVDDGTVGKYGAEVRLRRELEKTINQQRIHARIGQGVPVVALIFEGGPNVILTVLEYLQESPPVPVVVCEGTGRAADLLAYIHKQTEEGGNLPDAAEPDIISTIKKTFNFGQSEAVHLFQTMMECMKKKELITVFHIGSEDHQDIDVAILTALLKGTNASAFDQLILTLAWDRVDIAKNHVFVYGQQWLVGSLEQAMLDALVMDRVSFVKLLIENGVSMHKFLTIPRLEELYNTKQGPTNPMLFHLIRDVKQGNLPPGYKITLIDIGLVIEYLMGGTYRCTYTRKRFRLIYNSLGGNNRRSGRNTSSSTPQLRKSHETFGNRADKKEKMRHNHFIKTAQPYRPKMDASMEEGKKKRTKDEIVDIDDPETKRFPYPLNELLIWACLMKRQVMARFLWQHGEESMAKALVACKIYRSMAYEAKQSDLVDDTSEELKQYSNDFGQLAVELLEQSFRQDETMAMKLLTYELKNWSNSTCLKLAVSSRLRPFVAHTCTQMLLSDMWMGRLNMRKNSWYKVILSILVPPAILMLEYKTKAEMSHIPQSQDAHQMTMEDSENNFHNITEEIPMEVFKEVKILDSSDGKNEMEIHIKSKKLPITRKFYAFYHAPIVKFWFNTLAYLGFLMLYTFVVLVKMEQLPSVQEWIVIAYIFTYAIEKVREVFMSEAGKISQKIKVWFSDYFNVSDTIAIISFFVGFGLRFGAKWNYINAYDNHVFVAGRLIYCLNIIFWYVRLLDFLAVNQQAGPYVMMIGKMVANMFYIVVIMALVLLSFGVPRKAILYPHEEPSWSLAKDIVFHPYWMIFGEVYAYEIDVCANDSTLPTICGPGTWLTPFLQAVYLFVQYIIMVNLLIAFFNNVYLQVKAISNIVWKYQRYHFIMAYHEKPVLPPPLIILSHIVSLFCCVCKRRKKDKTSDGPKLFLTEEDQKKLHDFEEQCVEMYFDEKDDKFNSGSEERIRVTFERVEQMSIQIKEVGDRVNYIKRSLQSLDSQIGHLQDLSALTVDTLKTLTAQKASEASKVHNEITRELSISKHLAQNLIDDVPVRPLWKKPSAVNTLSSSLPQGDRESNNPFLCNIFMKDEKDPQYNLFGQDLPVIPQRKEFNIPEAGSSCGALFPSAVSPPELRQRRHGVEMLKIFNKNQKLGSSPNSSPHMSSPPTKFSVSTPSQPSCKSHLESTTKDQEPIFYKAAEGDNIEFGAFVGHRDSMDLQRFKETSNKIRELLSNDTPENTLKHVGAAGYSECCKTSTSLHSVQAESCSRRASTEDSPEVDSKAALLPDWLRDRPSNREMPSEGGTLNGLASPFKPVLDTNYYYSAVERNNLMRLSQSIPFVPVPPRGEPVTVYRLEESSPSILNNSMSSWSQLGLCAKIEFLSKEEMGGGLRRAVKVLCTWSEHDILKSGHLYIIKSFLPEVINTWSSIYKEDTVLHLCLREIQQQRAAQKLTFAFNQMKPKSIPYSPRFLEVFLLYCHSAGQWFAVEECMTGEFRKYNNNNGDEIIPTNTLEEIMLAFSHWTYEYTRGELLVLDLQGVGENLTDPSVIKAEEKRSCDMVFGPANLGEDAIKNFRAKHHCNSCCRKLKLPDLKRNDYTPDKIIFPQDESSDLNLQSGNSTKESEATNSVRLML
Description: Inhibition of FLAG-tagged mouse TRPM7 transfected in HEK293 cells assessed as inhibition of channel-mediated Mn2+ influx incubated for ~15 mins and measured for 90 secs by Fura-2-dye based fluorescence analysis
The target of data set [2] is T1, Transient receptor potential cation channel subfamily M member 7. Description: Inhibition of mouse TRPM7 expressed in HEK293 cells assessed as inhibition of channel current in presence of 700 uM intracellular Mg2+ by whole cell patch clamp analysis. It counts as cell-based.
Data set [3] in a line: 1-Octanol/water partition coefficient, log P of the compound by LC-MS analysis. It counts as physicochemical.
Data set [4] concerns the target T2, Transient receptor potential cation channel subfamily M member 7 (Homo sapiens, UniProt Q96QT4). Description: Irreversible covalent inhibition of human TRPM7 transfected in Tet-inducible HEK293-T-REx cells assessed as inhibition of channel current at 10 uM incubated for 50 to 150 secs and measured for 10 mins after drug wash-out by whole cell patch clamp analysis. The data set is classed as cell-based. The note with it: time 50-150 sec.

In data set [5] the target is T2, Transient receptor potential cation channel subfamily M member 7. Description: Covalent inhibition of human TRPM7 transfected in Tet-inducible HEK293-T-REx cells assessed as inhibition of channel current at 10 uM incubated for 50 to 150 secs by whole cell patch clamp analysis. As to conditions: time 50-150 sec. It counts as cell-based.
For data set [6], the target named is T1, Transient receptor potential cation channel subfamily M member 7. Description: Inhibition of HA-tagged mouse TRPM7 transfected in HEK293 cells assessed as inhibition of channel current by whole cell patch clamp analysis. The data set is classed as cell-based.
For data set [7] the target is unchanged. Description: Inhibition of mouse TRPM7 transfected in HEK293T cells assessed as inhibition of channel current in absence of intracellular Mg2+ by whole cell patch clamp analysis. The data set is classed as cell-based.
In data set [8] the target is T2, Transient receptor potential cation channel subfamily M member 7. Description: Inhibition of human TRPM7 transfected in Tet-inducible HEK293-T-REx cells assessed as inhibition of channel current in presence of 780 uM intracellular Mg2+ by whole cell patch clamp analysis. It counts as cell-based.
For data set [9], the target named is T1, Transient receptor potential cation channel subfamily M member 7. Description: Inhibition of mouse TRPM7 transfected in HEK293 cells assessed as inhibition of channel current in presence of 780 uM free intracellular Mg2+ by whole cell patch clamp analysis. It counts as cell-based.
Data set [10] has the same target. Description: Inhibition of mouse TRPM7 transfected in HEK293 cells assessed as inhibition of channel current in presence of 300 uM free intracellular Mg2+ by whole cell patch clamp analysis. It counts as cell-based.
For data set [11] the target is unchanged. Description: Inhibition of mouse TRPM7 transfected in HEK293 cells assessed as inhibition of channel current in absence of intracellular Mg2+ by whole cell patch clamp analysis. The data set is classed as cell-based.
Data set [12] concerns the target T2, Transient receptor potential cation channel subfamily M member 7. Description: Inhibition of human TRPM7 transfected in HEK293 cells assessed as inhibition of channel current by whole cell patch clamp analysis. The data set is classed as cell-based.

T2 sequence (Q96QT4 whole entry): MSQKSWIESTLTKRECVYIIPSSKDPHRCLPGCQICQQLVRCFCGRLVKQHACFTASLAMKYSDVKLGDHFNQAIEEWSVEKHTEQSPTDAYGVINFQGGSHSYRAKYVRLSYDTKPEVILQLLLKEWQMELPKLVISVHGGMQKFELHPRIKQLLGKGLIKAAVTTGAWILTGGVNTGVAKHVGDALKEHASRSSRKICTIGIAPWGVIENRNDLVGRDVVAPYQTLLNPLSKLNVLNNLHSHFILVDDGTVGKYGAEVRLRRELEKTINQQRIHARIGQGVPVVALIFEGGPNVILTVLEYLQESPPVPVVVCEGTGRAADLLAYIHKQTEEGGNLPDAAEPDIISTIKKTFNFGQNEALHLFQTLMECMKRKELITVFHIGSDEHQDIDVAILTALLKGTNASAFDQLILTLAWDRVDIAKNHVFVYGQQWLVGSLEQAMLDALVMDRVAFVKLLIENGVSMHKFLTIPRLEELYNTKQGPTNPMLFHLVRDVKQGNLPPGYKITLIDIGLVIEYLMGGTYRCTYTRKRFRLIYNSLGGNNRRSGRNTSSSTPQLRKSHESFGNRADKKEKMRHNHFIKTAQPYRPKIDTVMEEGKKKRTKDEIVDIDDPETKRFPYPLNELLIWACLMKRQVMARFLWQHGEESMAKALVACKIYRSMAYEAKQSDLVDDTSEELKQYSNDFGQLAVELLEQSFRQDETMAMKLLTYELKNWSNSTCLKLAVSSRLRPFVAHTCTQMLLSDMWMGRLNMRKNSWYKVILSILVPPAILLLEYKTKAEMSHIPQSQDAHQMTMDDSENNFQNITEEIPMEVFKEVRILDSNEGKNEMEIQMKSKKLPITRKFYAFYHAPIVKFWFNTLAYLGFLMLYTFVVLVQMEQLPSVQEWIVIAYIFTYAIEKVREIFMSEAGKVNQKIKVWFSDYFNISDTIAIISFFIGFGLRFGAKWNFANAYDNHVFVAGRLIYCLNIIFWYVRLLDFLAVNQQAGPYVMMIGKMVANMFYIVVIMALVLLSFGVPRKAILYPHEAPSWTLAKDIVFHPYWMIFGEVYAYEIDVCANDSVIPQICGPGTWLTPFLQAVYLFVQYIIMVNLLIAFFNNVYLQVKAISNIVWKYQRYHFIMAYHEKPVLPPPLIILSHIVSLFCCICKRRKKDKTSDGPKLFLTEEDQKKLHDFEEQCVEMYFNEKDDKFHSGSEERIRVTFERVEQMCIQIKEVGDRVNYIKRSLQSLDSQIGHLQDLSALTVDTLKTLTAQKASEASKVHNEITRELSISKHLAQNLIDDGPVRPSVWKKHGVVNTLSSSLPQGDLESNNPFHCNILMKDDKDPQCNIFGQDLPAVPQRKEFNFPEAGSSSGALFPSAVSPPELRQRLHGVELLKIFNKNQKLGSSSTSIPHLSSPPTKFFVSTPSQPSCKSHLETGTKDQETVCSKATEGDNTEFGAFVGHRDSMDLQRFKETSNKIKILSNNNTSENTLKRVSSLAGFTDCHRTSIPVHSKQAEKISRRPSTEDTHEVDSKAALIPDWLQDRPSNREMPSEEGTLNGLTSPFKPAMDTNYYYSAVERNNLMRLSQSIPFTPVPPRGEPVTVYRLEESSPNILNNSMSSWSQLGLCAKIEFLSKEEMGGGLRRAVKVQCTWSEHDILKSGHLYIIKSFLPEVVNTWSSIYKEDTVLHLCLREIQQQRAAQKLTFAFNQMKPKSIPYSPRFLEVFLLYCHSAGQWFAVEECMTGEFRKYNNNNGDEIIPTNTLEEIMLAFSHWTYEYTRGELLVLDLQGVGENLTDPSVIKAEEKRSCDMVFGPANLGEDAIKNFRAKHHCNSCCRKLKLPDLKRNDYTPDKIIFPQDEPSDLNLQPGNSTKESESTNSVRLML

The molecule `C=C1CC[C@@H]2O[C@@]2(C)CC[C@@H]2C([C@H](C/C=C(\C)COC(C)=O)OC(C)=O)=CO[C@H](OC(C)=O)[C@@H]12` showed an IC50 in data set [1] of 33 µM.
As to `C=C1CC/C=C(\C)CC[C@@H]2C([C@H](C/C=C(\C)COC(C)=O)OC(C)=O)=CO[C@H](OC(C)=O)[C@@H]12`, the IC50 in [1] was 20 µM; in data set [2], 0.016 µM. In [3], this molecule came in with a logP of 3.8. Also, the inhibition entry in [4] and in data set [5] was “Active” each time.
On to `CCCCCCCCc1ccc(CCC(N)(CO)CO)cc1` [FINGOLIMOD], for which the IC50 in data set [6] was determined as 0.72 µM.
`C=C1[C@@H]2[C@@H](OC(C)=O)OC=C([C@H](C/C=C(\C)COC(C)=O)OC(C)=O)[C@H]2CC[C@]2(C)O[C@H]2C[C@H]1O` yielded an IC50 in data set [1] of 13 µM.
Same read-out and setting: in the case of `C=C1CC[C@@H]2O[C@@]2(C)CC[C@@H]2C(C=O)=C[C@@H](/C=C(\C)COC(C)=O)[C@H](O)[C@@H]12` it was > 150 µM.
As for `N#Cc1ccc(COC[C@H]2O[C@@H](n3c(NCc4ccc(Cl)c(Cl)c4)nc4c(N)ncnc43)[C@H](O)[C@@H]2O)cc1`, the IC50 in [7] came out at 0.11 µM.
Consider `C=C1[C@@H]2[C@@H](OC(C)=O)OC=C([C@H](C/C=C(\C)COC(C)=O)OC(C)=O)[C@H]2CC/C(C)=C/C[C@H]1O`, for which the figures for the IC50 in data set [1] and in [8] were 12 µM and 0.09 µM, respectively.
Take `c1ccc2c(c1)CCC[C@H]2Nc1nc2ccccc2[nH]1`: the IC50 turned out to be 3.9 µM in data set [9], 5.9 µM in data set [10] and 1.6 µM in [11].
`C=C1CC/C=C(\C)CC[C@@H]2C([C@@H](O)C/C=C(\C)COC(C)=O)=CO[C@H](OC(C)=O)[C@@H]12`: the IC50 in [1] is > 130 µM.
On to `NCCOB(c1ccccc1)c1ccccc1`, for which inhibition in data set [1] was half-maximal at 22 µM (IC50).
Regarding `C=C1CC/C=C(\C)CC[C@H]2[C@H]1[C@H]1O[C@H](O)[C@]2(/C=C/C=C(\C)COC(C)=O)O1`, the IC50 in data set [1] is > 150 µM.
With `CCCCCc1cc(O)c(C/C=C(\C)CCC=C(C)C)c(O)c1C(=O)O` [CANNABIGEROLIC ACID], in data set [12], the IC50 amounted to 2.7 µM.
For `C=C1CC[C@H](OC(C)=O)C(=C)CC[C@@H]2C([C@H](C/C=C(\C)COC(C)=O)OC(C)=O)=CO[C@H](OC(C)=O)[C@@H]12`, the midpoint of inhibition in data set [1], the IC50, lay at 20 µM.
